{"source": "PubChem BioAssay (NCI)", "test_in_all_cases": "NCI anticancer screen, dose series, 48 h", "key": {"[1]": {"tested_on": "SN12C renal"}, "[2]": {"tested_on": "SR leukemia"}, "[3]": {"tested_on": "BT-549 breast"}, "[4]": {"tested_on": "OVCAR-8 ovarian"}, "[5]": {"tested_on": "NCI-H23 lung"}, "[6]": {"tested_on": "SK-MEL-2 melanoma"}, "[7]": {"tested_on": "SK-MEL-28 melanoma"}, "[8]": {"tested_on": "A498 renal"}, "[9]": {"tested_on": "HT29 colon"}, "[10]": {"tested_on": "NCI-H460 lung"}}, "note": "“And” between values parts separate entries of the source, which are not always exact repeats. Identical values can stand only once.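 Each compound was tested at five concentrations against cells in 96-well plates for 48 hours. Abbreviation: GI50, concentration required for 50% inhibition of growth. The concentration for full growth arrest is given as TGI.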"}
{"molecule": "Cn1c(=O)oc2cc(C(=S)N3CCCCC3)ccc21", "values": [{"measurement": "TGI", "setting": "[1]", "value": "> 100", "unit": "µM"}, {"measurement": "TGI", "setting": "[2]", "value": "> 100", "unit": "µM"}, {"measurement": "TGI", "setting": "[3]", "value": "> 100", "unit": "µM"}, {"measurement": "TGI", "setting": "[4]", "value": "> 100", "unit": "µM"}, {"measurement": "TGI", "setting": "[5]", "value": "> 100", "unit": "µM"}, {"measurement": "TGI", "setting": "[6]", "value": "> 100", "unit": "µM"}, {"measurement": "TGI", "setting": "[7]", "value": "> 100", "unit": "µM"}, {"measurement": "TGI", "setting": "[8]", "value": "> 100", "unit": "µM"}, {"measurement": "TGI", "setting": "[9]", "value": "> 100", "unit": "µM"}, {"measurement": "TGI", "setting": "[10]", "value": "> 100", "unit": "µM"}]}
{"molecule": "O=C1C=CC(=O)[C@H]2C3C=CC(C4C3C3(Cl)C(Cl)=C(Cl)[C@]4(Cl)C3(Cl)Cl)[C@@H]12", "note": "(some centres undefined)", "values": [{"measurement": "TGI", "setting": "[1]", "value": 18.2, "unit": "µM"}, {"measurement": "TGI", "setting": "[2]", "value": 9.28, "unit": "µM"}, {"measurement": "TGI", "setting": "[3]", "value": 19.2, "unit": "µM"}, {"measurement": "TGI", "setting": "[4]", "value": 20.7, "unit": "µM"}, {"measurement": "TGI", "setting": "[5]", "value": 25.7, "unit": "µM"}, {"measurement": "TGI", "setting": "[6]", "value": 20.3, "unit": "µM"}, {"measurement": "TGI", "setting": "[7]", "value": 18.6, "unit": "µM"}, {"measurement": "TGI", "setting": "[8]", "value": 31.7, "unit": "µM"}, {"measurement": "TGI", "setting": "[9]", "value": 12.2, "unit": "µM"}, {"measurement": "TGI", "setting": "[10]", "value": 15.9, "unit": "µM"}]}
{"molecule": "NC(CS)C(=O)NCCNc1ccc(NCCNC(=O)C(N)CS)c2c1C(=O)c1c(O)ccc(O)c1C2=O", "note": "(centres undefined)", "values": [{"measurement": "TGI", "setting": "[1]", "value": "0.0822 µM and 0.0691 µM"}, {"measurement": "TGI", "setting": "[2]", "value": 0.232, "unit": "µM"}, {"measurement": "TGI", "setting": "[3]", "value": 1.42, "unit": "µM"}, {"measurement": "GI50", "setting": "[4]", "value": 0.0108, "unit": "µM"}, {"measurement": "TGI", "setting": "[4]", "value": "0.574 µM and 0.174 µM"}, {"measurement": "TGI", "setting": "[5]", "value": "0.0636 µM and 0.0484 µM"}, {"measurement": "GI50", "setting": "[6]", "value": 0.227, "unit": "µM"}, {"measurement": "TGI", "setting": "[6]", "value": "1.38 µM and 0.87 µM"}, {"measurement": "GI50", "setting": "[7]", "value": 0.43, "unit": "µM"}, {"measurement": "TGI", "setting": "[7]", "value": "2 µM and 1.81 µM"}, {"measurement": "TGI", "setting": "[8]", "value": 0.344, "unit": "µM"}, {"measurement": "GI50", "setting": "[9]", "value": 0.0454, "unit": "µM"}, {"measurement": "TGI", "setting": "[9]", "value": "1.08 µM and 0.689 µM"}, {"measurement": "TGI", "setting": "[10]", "value": "0.208 µM and 0.125 µM"}]}
{"molecule": "O=[N+]([O-])c1ccc2c(N=Nc3ccc4ccccc4c3O)c(O)cc(S(=O)(=O)O)c2c1", "values": [{"measurement": "TGI", "setting": "[1]", "value": "> 100", "unit": "µM"}, {"measurement": "TGI", "setting": "[2]", "value": "> 69.4", "unit": "µM"}, {"measurement": "TGI", "setting": "[3]", "value": "> 100", "unit": "µM"}, {"measurement": "TGI", "setting": "[4]", "value": "> 93.6", "unit": "µM"}, {"measurement": "TGI", "setting": "[5]", "value": "> 93.4", "unit": "µM"}, {"measurement": "TGI", "setting": "[6]", "value": "> 100", "unit": "µM"}, {"measurement": "TGI", "setting": "[7]", "value": "> 100", "unit": "µM"}, {"measurement": "TGI", "setting": "[8]", "value": "> 100", "unit": "µM"}, {"measurement": "TGI", "setting": "[9]", "value": "> 100", "unit": "µM"}, {"measurement": "TGI", "setting": "[10]", "value": "> 100", "unit": "µM"}]}
{"molecule": "O=C(CBr)NCCc1c[nH]c2ccccc12", "values": [{"measurement": "TGI", "setting": "[1]", "value": 2.65, "unit": "µM"}, {"measurement": "TGI", "setting": "[2]", "value": 1, "unit": "µM"}, {"measurement": "TGI", "setting": "[3]", "value": 3.83, "unit": "µM"}, {"measurement": "TGI", "setting": "[4]", "value": "> 48.3", "unit": "µM"}, {"measurement": "TGI", "setting": "[5]", "value": 3.19, "unit": "µM"}, {"measurement": "TGI", "setting": "[6]", "value": 4.16, "unit": "µM"}, {"measurement": "TGI", "setting": "[7]", "value": 11.3, "unit": "µM"}, {"measurement": "TGI", "setting": "[8]", "value": 41.2, "unit": "µM"}, {"measurement": "TGI", "setting": "[9]", "value": 3.51, "unit": "µM"}, {"measurement": "TGI", "setting": "[10]", "value": 15, "unit": "µM"}]}
{"molecule": "CCOC(=O)C1=C(C)N(c2ccc(Cl)cc2)C2(O)C=CC(Nc3ccc(Cl)cc3)=C3C(=O)N(c4ccccc4)C(=O)C312", "note": "(centres undefined)", "values": [{"measurement": "TGI", "setting": "[1]", "value": 13.4, "unit": "µM"}, {"measurement": "TGI", "setting": "[2]", "value": "> 100", "unit": "µM"}, {"measurement": "TGI", "setting": "[3]", "value": 4.69, "unit": "µM"}, {"measurement": "TGI", "setting": "[4]", "value": 18.1, "unit": "µM"}, {"measurement": "TGI", "setting": "[5]", "value": 20, "unit": "µM"}, {"measurement": "TGI", "setting": "[6]", "value": 10.5, "unit": "µM"}, {"measurement": "TGI", "setting": "[7]", "value": 6.89, "unit": "µM"}, {"measurement": "TGI", "setting": "[8]", "value": 9.33, "unit": "µM"}, {"measurement": "TGI", "setting": "[9]", "value": 16.9, "unit": "µM"}, {"measurement": "TGI", "setting": "[10]", "value": 13.7, "unit": "µM"}]}
{"molecule": "NCCN(CCN)/[N+]([O-])=N/O", "values": [{"measurement": "TGI", "setting": "[1]", "value": "> 100", "unit": "µM"}, {"measurement": "TGI", "setting": "[2]", "value": "> 100", "unit": "µM"}, {"measurement": "TGI", "setting": "[3]", "value": "> 100", "unit": "µM"}, {"measurement": "TGI", "setting": "[4]", "value": "> 100", "unit": "µM"}, {"measurement": "TGI", "setting": "[5]", "value": "> 100", "unit": "µM"}, {"measurement": "TGI", "setting": "[6]", "value": "> 100", "unit": "µM"}, {"measurement": "TGI", "setting": "[7]", "value": "> 100", "unit": "µM"}, {"measurement": "TGI", "setting": "[8]", "value": "> 100", "unit": "µM"}, {"measurement": "TGI", "setting": "[9]", "value": "> 100", "unit": "µM"}, {"measurement": "TGI", "setting": "[10]", "value": "> 100", "unit": "µM"}]}
